Test results reported in patent US20020151467A1 (priority 2000, published 2002).

Experiments:
Type in all cases: in vivo
[1] = test system: nondiabetic rats; experiment: Transdermal insulin (Dermulin) vs intraperitoneal insulin injection, blood glucose in rats; details: for Percent of glucose reduction: Group 4: intraperitoneal 12.5 u insulin
Experimental: All rats weighed 50-80 gms, aged 1 month. Group 1 (control—placebo): 6 rats, Group 2 (Dermulin™, 12.5 u): 5 rats, Group 3 (Dermulin™, 25 u): 5 rats, Group 4 (intraperitoneal injection): 5 rats.
(§1) All rats were fasted 2 hrs before experiments. They were lightly anesthesized by ether. Neck skin was dissected and jugular vein was exposed. 0.1 ml of blood was drawn at time 0, 5, 10, 15, 30, 60, 90, 120, 150, 180, 210, 240, 270, 300 minutes for glucose measurement by Abbott's Precision glucose monitor. Hair was shaved from the abdomen. Group 2 and Group3 had 12.5 u and 25 u of Dermulin™ applied to the abdominal skin respectively.
All data were analyzed using SAS system, Version 6.12. in 2 ways: 1) Simultaneous comparison of multiple groups by Dunnett's t test at 5% significance level. 2) Comparison of slopes of the glucose reduction rate by repeated measures analysis of variance method by the “Mixed Procedure” of the SAS system software.

[2] = test system: nondiabetic rats; experiment: Hypoglycemic efficacy of oral insulin (Musulin) compared to subcutaneous and intraperitoneal injections in rats; details: 1.67 unit every 5 minutes
Experimental: All rats weighed 50-80 gms, age of the rats was 1 month. Group 1 (control—placebo): 6 rats; Group 2 (Musulin™): 6 rats; Group 3 (Musulin™): 5 rats; Group 4 (Musulin™): 5 rats; Group 5 (intraperitoneal injection): 5 rats; and Group 6 (subcutaneous injection): 5 rats. All rats were fasted 2 hrs before experiments. They were lightly anesthesized by ether. Neck skin was dissected and the jugular vein was exposed. 0.1 ml of blood was drawn at times 0, 5, 10,15, 30, 60, 90, 120, 150, 180, 210, 240, 270, 300 minutes for glucose measurement by Abbott's Precision glucose monitor. In order to ensure the maximal exposure and absorption of Musulin™ in the rats' tiny oral cavities, the rats were fed constant amounts at preset time periods. […] Group 3 received 3.33 units and Group 4 received 6.67 units every 5 minutes.
All data were analysed using SAS system, Version 6.12. in 2 ways: 1) Simultaneous comparison of multiple groups by Dunnett's t test at 5% significance level. 2) Comparison of slopes of the glucose reduction rate by repeated measures analysis of variance method by the “Mixed Procedure” of the SAS system software.

[3] = test system: nondiabetic rats; experiment: Transdermal insulin (Dermulin) vs subcutaneous insulin injection, blood glucose in rats; details: for Percent of glucose reduction compared to initial levels: Group 4: subcutaneous 12.5 u insulin
Experimental: All rats weighed 50-80 gms, aged 1 month. Group 1 (control—placebo): 6 rats, Group 2 (Dermulin™, 12.5 u): 5 rats, Group 3 (Dermulin™, 25 u): 5 rats, Group 4 (subcutaneous injection): 5 rats.
as §1, with “Group 3” for “Group3”
All data were analyzed using SAS system, Version 6.12. in 2 ways: 1) Simultaneous comparison of multiple groups by Dunnett's t test at 5% significance level. 2) Comparison of slopes of the glucose reduction rate by repeated measures analysis of variance method by the” Mixed Procedure” of the SAS system software.

[4] = Group 4: single intraperitoneal injection of 12.5 u insulin
[5] = Group 5: intraperitoneal insulin injection
[6] = Group 4: single subcutaneous injection of 12.5 u insulin
[7] = Group 6: subcutaneous insulin injection

“intraperitoneal injection: injection control: insulin given intraperitoneally” was tested, and the “Percent of glucose reduction” value ([1]; at 60 minutes) was 26.1 (s.d. 13.4) Percent, the “Percent of glucose reduction” value ([1]; at 120 minutes) was 16.5 (s.d. 13) Percent and the “Percent of glucose reduction” value ([1]; at 180 minutes) was 25.8 (s.d. 14.1) Percent. The “Percent of glucose reduction” value ([1]; at 300 minutes) was 27.8 (s.d. 33.6) Percent, the “Rate of glucose reduction at the slope” value [1, 4] was -0.5 mg/min and the “Statistically significant onset of action” value [1, 4] was 5 min. The “Death from hypoglycemia within 300 minutes” value [2, 5] was 80%, the “Rate of glucose reduction at the maximal slope” value [2, 5] was -0.54 mg/min and the “Statistically significant onset of action” value [2, 5] was 10 min. The “time for 50% rats to achieve 50% glucose reductions” value [2, 5] was 13 min, the “Percent mean reduction of glucose compared to initial levels” value (“Percent mean reduction of glucose” below) ([2]; Group 5: intraperitoneal insulin injection, at 60 minutes) was 30.4 (s.d. 3.8) Percent and the “Percent mean reduction of glucose” value ([2]; Group 5: intraperitoneal insulin injection, at 120 minutes) was 18.7 (s.d. 15.2) Percent. The “Percent mean reduction of glucose” value ([2]; Group 5: intraperitoneal insulin injection, at 300 minutes) was 0 (s.d. 0) Percent.
“subcutaneous injection: injection control: insulin (Humalog) by subcutaneous injection” was tested, and the “Rate of glucose reduction at the slope between 30-120 min.” value [3, 6] was -0.5 mg/min, the “Statistically significant onset of action” value [3, 6] was 5 min and the “Percent of glucose reduction compared to initial levels” value ([3]; at 60 minutes) was 28 (s.d. 13.4) Percent. For the same substance, the “Percent of glucose reduction compared to initial levels” value ([3]; at 120 minutes) was 21.9 (s.d. 13) Percent, the “Percent of glucose reduction compared to initial levels” value ([3]; at 180 minutes) was 17.2 (s.d. 14.1) Percent and the “Percent of glucose reduction compared to initial levels” value ([3]; at 300 minutes) was 0%. The “Death from hypoglycemia within 300 minutes” value [2, 7] was 100%, the “Rate of glucose reduction at the maximal slope” value [2, 7] was -0.51 mg/min and the “Statistically significant onset of action” value [2, 7] was 10 min. For the same substance, the “time for 50% rats to achieve 50% glucose reductions” value [2, 7] was 15 min, the “Percent mean reduction of glucose” value ([2]; Group 6: subcutaneous insulin injection, at 60 minutes) was 39.8 (25.5) Percent and the “Percent mean reduction of glucose” value ([2]; Group 6: subcutaneous insulin injection, at 120 minutes) was 25.5 (s.d. 31.7) Percent. For the same substance, the “Percent mean reduction of glucose” value ([2]; Group 6: subcutaneous insulin injection, at 300 minutes) was 41.1%.
